Experiments:
[1] = system: hematological malignancies and solid tumors; conditions: several hematological malignancies and solid tumors; cited from earlier work
[2] = system: T-ALL patient derived xenograft models; conditions: in vivo; cited from earlier work
lymphoid malignancies = conditions: cited from earlier work
BCLXL [3] = target: T1, BCLXL (Homo sapiens, UniProt Q07817, V10N/V9A); assay: Fluorescence polarisation assay (PUMA-based probe displacement); assay type: binding; note: 20 nM protein, 10 nM fluorescent probe
T1 sequence (Q07817 with tags, fused parts or gaps V9A/V10N): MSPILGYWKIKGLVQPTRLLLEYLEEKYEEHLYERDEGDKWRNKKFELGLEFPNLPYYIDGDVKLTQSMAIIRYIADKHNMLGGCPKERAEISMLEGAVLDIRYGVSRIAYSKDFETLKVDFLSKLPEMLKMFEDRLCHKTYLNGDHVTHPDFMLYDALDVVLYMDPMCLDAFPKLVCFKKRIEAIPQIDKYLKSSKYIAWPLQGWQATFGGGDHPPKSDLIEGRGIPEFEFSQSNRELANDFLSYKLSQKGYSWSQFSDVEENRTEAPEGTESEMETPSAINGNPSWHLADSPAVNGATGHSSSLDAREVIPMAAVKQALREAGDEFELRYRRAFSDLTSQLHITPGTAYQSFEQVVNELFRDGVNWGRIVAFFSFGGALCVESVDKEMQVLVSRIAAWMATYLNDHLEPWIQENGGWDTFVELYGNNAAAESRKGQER

H146 cells = assay: H146 cell viability, MTT assay; assay type: cell-based; conditions: Homo sapiens, NCI-H146, 48 h, 48 h exposure
In short: (§1)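 Cells grown in RPMI 1640 with 10% heat-inactivated FBS at 37° C, 5% CO2, exposed 48 h to nine 3.16-fold serial compound dilutions in triplicate. MTT added for 4 h, SDS/HCl solubilisation overnight, absorbance at 540 nm; IC50 by four-parameter fit.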

MOLT-4 cells = assay: MOLT-4 cell viability, MTT assay; assay type: cell-based; conditions: Homo sapiens, MOLT-4, 48 h, 48 h exposure
In short: as §1

BCLXL [4] = target: T1, BCLXL; assay: AlphaLISA assay (BIM peptide displacement); assay type: binding; conditions: 20 pM protein, 1 nM peptide
In short: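 Competitive displacement of fluorescein-labelled BIM peptide (1 nM) from biotinylated GST-BCL-XL(2-209) (20 pM) in 10 mM HEPES, 150 mM NaCl, 0.05% Tween 20, pH 7.4, 4% DMSO; 11-point dilutions. Overnight at 23° C with acceptor beads, then donor beads 2 h; Alpha signal at 615 nm.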

[5] = system: MOLT-4 T-cell Acute Lymphoblastic Leukemia (T-ALL) model; assay: MOLT-4 xenograft efficacy study (tumor growth inhibition); assay type: in vivo, female NOD SCID mice; conditions: for % TGI (day 17): 3.75 mg/kg, IV, Q3D6; for activity in vivo after intravenous administration: MOLT-4 xenograft
Experimental: The in vivo therapeutic and pharmacodynamic effects of Bcl-xL-targeting small molecules were determined in MOLT-4 T-cell Acute Lymphoblastic Leukemia (T-ALL) model upon intravenous (IV) administration. The tested compounds were formulated in Hydroxypropyl-β-Cyclodextrin 20%/Hydrogen Chloride 25 mM (HPBCD/HCl). MOLT-4 cells (ATCC No. CRL-1582) were cultured in RPMI supplemented with 10% FBS. Cells were re-suspended in 50% matrigel (BD Biosciences) and 0.1 mL containing 5×10^6 cells was subcutaneously inoculated into the right flank of female NOD SCID mice (Charles River). For efficacy studies, when tumors reached the appropriate volume, mice were randomized (8 animals per group) using Easy stat software. Control vehicle (HPBCD/HCl), Example 73 (3.75 or 7.5 mg/kg) or Example 100 (3.75 mg/kg) were injected IV ([…]-[…]). Mice body weight was monitored three times a week and tumor size was measured using electronic calipers. Tumor volume was estimated by measuring the minimum and maximum tumor diameters using the formula: (minimum diameter)^2 (maximum diameter)/2. At the end of the treatment cycle (day 17), tumor growth inhibition was calculated using the formula: [formula] Response was evaluated as follows: CR (Complete Response) if tumor size was ≤25 mm^3 for at least three consecutive measurements, PR (Partial Response) if tumor size was comprised between 25 mm^3 and half of the starting size for at least three consecutive measurements. Mice were sacrificed at the first measurement for which tumor volume exceeded 2000 mm^3 or at the first signs of animal health deterioration. Efficacy of Example 73 and Example 100 on MOLT-4 xenografts is illustrated in Table 5. Treatment was started 12 days post tumor cells inoculation (average size: 214 mm^3). Vehicle (HPBCD/HCl), Example 73 (3.75 and 7.5 mg/kg) or Example 100 (3.75 mg/kg) were dosed IV each 3 days for a total of 6 administrations.

Bcl-xL protein = target: T2, Bcl-xL protein (Homo sapiens, UniProt Q07817, N197C); assay: Fluorescence quenching assay (PUMA peptide displacement); assay type: binding; conditions: 1 nM protein, 400 nM peptide, 2 hours at 23° C.; KI determined from IC50
T2 construct: (2-197)[N197C]; His-His (two His8 stretches joined by a Gly/Ala/Ser/Thr linker)
T2 sequence (Q07817 2-197 N197C): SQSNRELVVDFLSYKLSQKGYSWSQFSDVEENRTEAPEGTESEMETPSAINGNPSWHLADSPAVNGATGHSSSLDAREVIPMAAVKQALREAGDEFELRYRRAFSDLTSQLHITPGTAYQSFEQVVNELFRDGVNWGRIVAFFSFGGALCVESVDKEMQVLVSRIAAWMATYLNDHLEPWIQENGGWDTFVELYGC
In short: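 Displacement of a TQ5WS-quencher-labelled PUMA peptide (400 nM) from Cy5-labelled His-tagged Bcl-xL 2-197 N197C (1 nM) raises fluorescence. An 11-point compound dilution was incubated 2 h at 23 °C in HEPES 10 mM, NaCl 150 mM, 0.05% Tween 20, pH 7.4, 5% DMSO. Fluorescence was read at Ex 620/Em 680 nm, and KI was derived from IC50.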

[6] = system: T-ALL (T-cell Acute Lymphoblastic Leukemia) and different types of solid tumors; conditions: pre-clinical models of T-ALL and different types of solid tumors; cited from earlier work
MOLT-4 = conditions: mature T-ALL cell line xenograft model MOLT-4; cited from earlier work
allogeneic T-cell = conditions: in vitro; cited from earlier work
lymphocyte proliferation = conditions: in vitro; cited from earlier work
[7] = system: allogeneic T- and B-cell responses; conditions: after skin transplantation; cited from earlier work
[8] = mice, animal models of arthritis and lupus; cited from earlier work

SMILES: CC1(C)CCC(c2ccc(Cl)cc2)=C(CN2CCN(c3ccc(C(=O)NS(=O)(=O)c4ccc(N[C@H](CCN5CCOCC5)CSc5ccccc5)c(S(=O)(=O)C(F)(F)F)c4)cc3)CC2)C1 [ABT-263]
- activity in pre-clinical models [1]: has shown activity
- activity in T-ALL patient derived xenograft models [2]: promising activity
- antitumor activity in clinical studies (lymphoid malignancies): exhibited objective antitumor activity

SMILES: Cc1cc(N(C)c2nc(C(=O)O)c(CCCOc3ccc(C#CCO)cc3F)s2)nnc1Nc1nc2ccccc2s1 [Example 100, 2-({6-[(1,3-Benzothiazol-2-yl)amino]-5-methylpyridazin-3-yl}(methyl)amino)-5-{3-[2-fluoro-4-(3-hydroxyprop-1-yn-1-yl)phenoxy]propyl}-1,3-thiazole-4-carboxylic acid]
- Ki (BCLXL [3]): 1.6 nM
- IC50 (H146 cells): 38.6 nM
- IC50 (MOLT-4 cells): 12.6 nM
- IC50 (BCLXL [4]): 0.032 nM
- % TGI (day 17) [5]: 64.6%
- activity in vivo after intravenous administration [5]: active in vivo

SMILES: CNCCN(C)CC#Cc1ccc(OCCCc2sc(N(C)c3cc(C)c(Nc4nc5ccccc5s4)nn3)nc2C(=O)O)c(F)c1 [Example 74, 2-({6-[(1,3-Benzothiazol-2-yl)amino]-5-methylpyridazin-3-yl}(methyl)amino)-5-{3-[2-fluoro-4-(3-{methyl[2-(methylamino)ethyl]amino}prop-1-yn-1-yl)phenoxy]propyl}-1,3-thiazole-4-carboxylic acid]
- Ki (BCLXL [3]): 1.1 nM
- IC50 (H146 cells): 6.78 nM
- IC50 (MOLT-4 cells): 6.72 nM
- Ki (Bcl-xL protein): 0.0061 nM
- IC50 (BCLXL [4]): 0.074 nM
- activity in vivo after intravenous administration [5]: active in vivo

SMILES: CN(C)CC#Cc1ccc(OCCCc2sc(N3CCc4cccc(C(=O)Nc5nc6ccccc6s5)c4C3)nc2C(=O)O)c(F)c1 [Example A-1155463]
- in vivo activity [6]: exhibited in vivo activity

SMILES: CNCC#Cc1ccc(OCCCc2sc(N(C)c3cc(C)c(Nc4nc5ccccc5s4)nn3)nc2C(=O)O)c(F)c1 [Example 73, 2-({6-[(1,3-Benzothiazol-2-yl)amino]-5-methylpyridazin-3-yl}(methyl)amino)-5-(3-{2-fluoro-4-[3-(methylamino)prop-1-yn-1-yl]phenoxy]propyl)-1,3-thiazole-4-carboxylic acid]
- Ki (BCLXL [3]): < 1 nM
- IC50 (H146 cells): 4.8 nM
- IC50 (MOLT-4 cells): 1.51 nM
- Ki (Bcl-xL protein): 0.0028 nM
- IC50 (BCLXL [4]): 0.0077 nM
- % TGI (day 17) [5]: 56.9%
- activity in vivo after intravenous administration [5]: active in vivo

SMILES: Cc1c(-c2ccc(N3CCc4cccc(C(=O)Nc5nc6ccccc6s5)c4C3)nc2C(=O)O)cnn1CC12CC3CC(CC(C3)C1)C2 [Example A-1331852]
- in vivo activity [6]: exhibited in vivo activity
- in vitro and in vivo activity (MOLT-4): in vitro and in vivo activity

SMILES: Cc1cc(N(C)c2nc(C(=O)O)c(CCCOc3ccc(C#CCN(C)CCO)cc3F)s2)nnc1Nc1nc2ccccc2s1 [Example 76, 2-({6-[(1,3-Benzothiazol-2-yl)amino]-5-methylpyridazin-3-yl}(methyl)amino)-5-[3-(2-fluoro-4-{3-[(2-hydroxyethyl)(methyl)amino]prop-1-yn-1-yl}phenoxy)propyl]-1,3-thiazole-4-carboxylic acid]
- Ki (BCLXL [3]): < 1 nM
- IC50 (H146 cells): 11.3 nM
- IC50 (MOLT-4 cells): 2.37 nM
- IC50 (BCLXL [4]): 0.077 nM
- activity in vivo after intravenous administration [5]: active in vivo

SMILES: Cc1cc(N(CCCC(O)CN2CCC(N)CC2)c2nc(C(=O)O)c(CCCOc3ccc(C#CCN(C)C)cc3F)s2)nnc1Nc1nc2ccccc2s1 (stereo not shown) [Example 171, 2-[[5-(4-Amino-1-piperidyl)-4-hydroxy-pentyl]-[6-(1,3-benzothiazol-2-ylamino)-5-methyl-pyridazin-3-yl]amino]-5-[3-[4-[3-(dimethylamino)prop-1-ynyl]-2-fluoro-phenoxy]propyl]thiazole-4-carboxylic acid]
- Ki (BCLXL [3]): < 1 nM
- IC50 (H146 cells): 110 nM
- IC50 (MOLT-4 cells): 411 nM
- Ki (Bcl-xL protein): 0.0035 nM
- IC50 (BCLXL [4]): 0.013 nM

SMILES: CN(C)CC[C@H](CSc1ccccc1)Nc1ccc(S(=O)(=O)NC(=O)c2ccc(N3CCN(Cc4ccccc4-c4ccc(Cl)cc4)CC3)cc2)cc1[N+](=O)[O-] [ABT-737]
- allogeneic T-cell activation, proliferation, and cytotoxicity (allogeneic T-cell): prevented allogeneic T-cell activation, proliferation, and cytotoxicity
- activity in T-ALL patient derived xenograft models [2]: promising activity
- inhibition of lymphocyte proliferation (lymphocyte proliferation): potent inhibition of lymphocyte proliferation
- allogeneic T- and B-cell responses [7]: inhibited allogeneic T- and B-cell responses
- disease severity [8]: significant decrease in disease severity

Source: patent publication US12649733B2, “3,6-diamino-pyridazin-3-yl derivatives, pharmaceutical compositions containing them and their uses as pro-apoptotic agents” (LES LABORATOIRES SERVIER, priority 2019, dated 2026)
